Laboratory results as given in PMC11721293 (JCI Insight, 2025).
pEC50: −log10 of the molar value. “And” between values parts separate entries of the source, which are not always exact repeats. Equal entries are not always repeated. Where two headings read alike, the source gives them in different places.

Columns and labels:
[1] = system: VSV-SARS-CoV-2-S pseudovirus; test: microbe, parasite or virus in culture; type: cell-based; settings: for pEC50: Pseudovirus
[2] = system: SARS-CoV-2 (Wuhan strain); type: cell-based; settings: replicates
SARS-CoV-2 [3] = type: cell-based; settings: for percentage genome copy number relative to DMSO: 48 h, replicates
SARS-CoV-2 [4] = test: Virus-induced cytopathic effect (CPE) in VeroE6; type: cell-based
[5] = system: SARS-CoV-2 spike protein–mediated cell-cell fusion (B.1.315); type: cell-based; settings: B.1.315 (printed), 48 h
[6] = system: SARS-CoV-2 spike protein–mediated cell-cell fusion (B.1.617); type: cell-based; settings: 48 h
[7] = system: SARS-CoV-2 spike protein–mediated cell-cell fusion (BA.1); type: cell-based; settings: 48 h
SARS-CoV-2 [8] = type: cell-based; settings: for percentage replication relative to untreated, infected control: LNF 10 μM
SARS-CoV-2 viral entry = type: cell-based; settings: for viral entry signal relative to DMSO (sheet 4D): individual replicates, DMSO about 1
[9] = system: SARS-CoV-2 strain USA-WA1/2020; type: in vivo, mouse
[10] = Pharmacokinetics after single IP administration; settings: K18-hACE2(Tg) C57Bl/6J, mouse, 40 mg/kg; for Kp / concentration at 24 h / half-life: in vivo, single IP; for Kp: AUC ratio (Tissue/PL); for concentration at 24 h: C24h

With `NC(=O)N1CCC(CC(=O)N2CCC([C@H]3c4ncc(Br)cc4CCc4cc(Cl)cc(Br)c43)CC2)CC1` [LNF, lonafarnib] as the molecule, how does the Max % [1] read?
The Max % was 100.0%.

And the pEC50 ([1]; Calu-3, 24 h, 24 h, read-out: EC50)?
The pEC50 was 5.50.

And the pEC50 ([1]; Huh-7, 24 h, 24 h, read-out: EC50)?
Its pEC50 is 5.38.

And the pEC50 ([1]; Huh-7, read-out: EC50)?
Its pEC50 is 5.38.

And the pEC50 ([1]; read-out: EC50 values, range over cell lines)?
Its pEC50 is 5.38 to 5.82.

And the pEC50 ([1]; read-out: EC50)?
The pEC50 was 5.48.

What about the “percentage of N-positive cells relative to DMSO” value ([2]; Fig 1B, 5 mM (printed)) of the same molecule?
Its value is 45.291% and 39.2779% and 27.7255% and 32.1523% and 27.1799% and 44.2583% and 28.0879%.

What about the “percentage of N-positive cells relative to DMSO” value ([2]; Fig 1B, 10 mM (printed)) of the same molecule?
The value was 6.293% and 7.566% and 7.349% and 6.272% and 7.2903% and 7.5535% and 6.442%.

And the “percentage of N-positive cells relative to DMSO” value ([2]; Fig 1C, 5 mM (printed))?
Its value is 10.1344% and 5.318% and 6.858% and 5.707% and 14.6837% and 5.046% and 43.0964%.

What about the “percentage of N-positive cells relative to DMSO” value ([2]; Fig 1C, 10 mM (printed)) of the same molecule?
Its value is 4.886% and 4.575% and 6.603% and 7.209% and 6.0224% and 5.548% and 4.54%.

What about the “reduction of viral genome copy number in infected cells” value (SARS-CoV-2 [3]; 10 μM, VeroE6 and Calu3) of the same molecule?
Its value is “more than 90%”.

What about the “percentage genome copy number relative to DMSO” value (SARS-CoV-2 [3]; Fig 1D, 5 mM (printed)) of the same molecule?
Its value is 15.7327% and 8.267% and 4.447%.

And the “percentage genome copy number relative to DMSO” value (SARS-CoV-2 [3]; Fig 1D, 10 mM (printed))?
Its value is 0.3388% and 0.169% and 0.1887%.

And the “percentage genome copy number relative to DMSO” value (SARS-CoV-2 [3]; Fig 1E, 5 mM (printed))?
Its value is 1.7284% and 12.0506% and 10.6523% and 4.939%.

What about the “percentage genome copy number relative to DMSO” value (SARS-CoV-2 [3]; Fig 1E, 10 mM (printed)) of the same molecule?
Its value is 0.1445% and 0.1282% and 0.2571% and 0.1291%.

What about the “effect on virus-induced CPE” value (SARS-CoV-2 [4]) of the same molecule?
Its value is “rescued the infected cells from virus-induced CPE”.

And the relative luciferase signals ([5]; Conc-mM 0.3 (printed))?
The relative luciferase signals was 107.391 and 104.235 and 80.412 and 106.736.

What about the relative luciferase signals ([5]; Conc-mM 1 (printed)) of the same molecule?
The relative luciferase signals was 99.0641 and 83.1761 and 82.6205 and 92.2492.

And the relative luciferase signals ([5]; Conc-mM 3 (printed))?
Its relative luciferase signals is 65.2189 and 57.2378 and 55.5623 and 61.7046.

And the relative luciferase signals ([5]; Conc-mM 10 (printed))?
Its relative luciferase signals is 36.5792 and 34.1792 and 24.08 and 33.4344.

And the relative luciferase signals ([6]; Conc-mM 0.3 (printed))?
Its relative luciferase signals is 89.139 and 98.5081 and 88.3035 and 100.955.

And the relative luciferase signals ([6]; Conc-mM 1 (printed))?
The relative luciferase signals was 86.0359 and 78.2183 and 102.626 and 94.5695.

And the relative luciferase signals ([6]; Conc-mM 3 (printed))?
Its relative luciferase signals is 65.1493 and 69.6847 and 66.5219 and 76.0103.

What about the relative luciferase signals ([6]; Conc-mM 10 (printed)) of the same molecule?
The relative luciferase signals was 35.8018 and 38.2651 and 35.7143 and 29.2527.

And the relative luciferase signals ([7]; 0.3 (printed))?
The relative luciferase signals was 93.9702 and 58.6533 and 53.4918 and 75.0181.

What about the relative luciferase signals ([7]; 1 (printed)) of the same molecule?
Its relative luciferase signals is 108.194 and 73.2387 and 73.7551 and 89.5366.

And the “time-of-addition result” value (SARS-CoV-2 [8])?
The value was “high efficacy of LNF even if the drug was added 4–24 hours after infection”.

What about the “effect on early events of viral infection” value (SARS-CoV-2 [8]; Calu3, 10 μM) of the same molecule?
Its value is “little or no effect on the early events of viral infection”.

And the “effect when drug present during an initial period of viral infection” value (SARS-CoV-2 [8]; VeroE6, 10 μM)?
The value was 50%.

And the “percentage replication relative to untreated, infected control” value (SARS-CoV-2 [8]; VeroE6, drug present (0,4) h)?
Its value is 51.9274% and 49.1443% and 50.2213% and 50.0245% and 32.7935% and 31.4407% and 36.9633% and 35.1922%.

And the “percentage replication relative to untreated, infected control” value (SARS-CoV-2 [8]; VeroE6, drug present (0,24) h)?
The value was 1.998% and 1.949% and 1.813% and 1.81% and 1.891% and 1.817% and 1.711% and 1.724%.

What about the “percentage replication relative to untreated, infected control” value (SARS-CoV-2 [8]; VeroE6, drug present (2,4) h) of the same molecule?
Its value is 73.914% and 71.0289% and 54.3207% and 56.213% and 71.519% and 69.7874% and 67.1461% and 65.4707%.

What about the “percentage replication relative to untreated, infected control” value (SARS-CoV-2 [8]; VeroE6, drug present (2,24) h) of the same molecule?
Its value is 3.962% and 4.023% and 3.69% and 3.889% and 3.6% and 3.5757% and 3.292% and 3.351%.

And the “percentage replication relative to untreated, infected control” value (SARS-CoV-2 [8]; VeroE6, drug present (4,24) h)?
The value was 4.215% and 4.26% and 5.337% and 5.659% and 5.734% and 5.806% and 3.6315% and 3.627%.

And the “percentage replication relative to untreated, infected control” value (SARS-CoV-2 [8]; VeroE6, drug present (-2,0) h)?
The value was 98.397% and 97.5913% and 93.062% and 94.6733% and 95.1896% and 94.1548% and 95.9294% and 95.558%.

And the “percentage replication relative to untreated, infected control” value (SARS-CoV-2 [8]; VeroE6, drug present (-2,2) h)?
The value was 55.8703% and 55.9821% and 50.6506% and 51.7567% and 51.3569% and 50.1515% and 51.6639% and 51.979%.

And the “percentage replication relative to untreated, infected control” value (SARS-CoV-2 [8]; VeroE6, drug present (-2,4) h)?
Its value is 43.6671% and 43.2347% and 41.1828% and 42.7136% and 40.9571% and 40.8036% and 42.923% and 42.3078%.

What about the “percentage replication relative to untreated, infected control” value (SARS-CoV-2 [8]; VeroE6, drug present (-2,24) h) of the same molecule?
Its value is 1.731% and 1.694% and 2.365% and 2.435% and 2.361% and 2.315% and 1.913% and 1.91%.

And the “inhibition of viral entry” value (SARS-CoV-2 viral entry)?
Its value is “inhibited viral entry”.

And the “viral entry signal relative to DMSO (sheet 4D)” value (SARS-CoV-2 viral entry; TA6 cells)?
The value was 0.282 and 0.3105 and 0.4405 and 0.3405 and 0.2054 and 0.2625 and 0.3109 and 0.2607 and 0.1876.

What about the “viral entry signal relative to DMSO (sheet 4D)” value (SARS-CoV-2 viral entry; VeroE6 cells) of the same molecule?
Its value is 0.1605 and 0.1408 and 0.1008 and 0.1281 and 0.213 and 0.1543 and 0.08537 and 0.09496 and 0.1294.

And the “Clinical Score” value ([9]; Day 5, individual animals)?
Its value is 1 (3×) and 0 (7×).

And the “composite clinical score” value ([9]; LNF 40 MPK IP, RDV 25 MPK SC, twice daily)?
The value was “much improved disease parameters”.

What about the AUC(0-inf) ([10]; brain) of the same molecule?
Its AUC(0-inf) is 29 µM·h.

And the Cmax ([10]; brain)?
The Cmax was 1.46 µM.

And the Tmax ([10]; brain)?
Its Tmax is 7 h.

And the AUC(0-inf) ([10]; heart)?
Its AUC(0-inf) is 987 µM·h.

What about the Cmax ([10]; heart) of the same molecule?
Its Cmax is 94.1 µM.

And the Tmax ([10]; heart)?
Its Tmax is 0.5 h.

And the Kp ([10]; Brain)?
Its Kp is 0.12.

What about the Kp ([10]; Heart) of the same molecule?
The Kp was 3.9.

And the Kp ([10]; Kidney)?
The Kp was 2.8.

And the Kp ([10]; Liver)?
Its Kp is 12.

And the Kp ([10]; Lung)?
The Kp was 3.1.

And the concentration at 24 h ([10]; Brain)?
The concentration at 24 h was 0.36 µM.

What about the concentration at 24 h ([10]; Heart) of the same molecule?
Its concentration at 24 h is 11.4 µM.

And the concentration at 24 h ([10]; Kidney)?
The concentration at 24 h was 8.24 µM.

And the concentration at 24 h ([10]; Liver)?
The concentration at 24 h was 40.3 µM.

What about the concentration at 24 h ([10]; Lung) of the same molecule?
Its concentration at 24 h is 8.17 µM.

What about the concentration at 24 h ([10]; Plasma) of the same molecule?
Its concentration at 24 h is 2.76 µM.

And the half-life ([10]; t1/2, Brain)?
Its half-life is 8.3 h.

And the half-life ([10]; t1/2, Heart)?
The half-life was 10.1 h.

What about the half-life ([10]; t1/2, Kidney) of the same molecule?
The half-life was 9 h.

And the half-life ([10]; t1/2, Liver)?
Its half-life is 10.7 h.

What about the half-life ([10]; t1/2, Lung) of the same molecule?
Its half-life is 8.7 h.

And the half-life ([10]; t1/2, Plasma)?
The half-life was 8.8 h.

What about the AUC(0-inf) ([10]; kidney) of the same molecule?
The AUC(0-inf) was 699 µM·h.

And the Cmax ([10]; kidney)?
Its Cmax is 46 µM.

What about the Tmax ([10]; kidney) of the same molecule?
The Tmax was 1 h.

And the AUC(0-inf) ([10]; liver)?
The AUC(0-inf) was 3060 µM·h.

And the Cmax ([10]; liver)?
The Cmax was 224 µM.

And the Tmax ([10]; liver)?
Its Tmax is 0.25 h.

What about the AUC(0-inf) ([10]; lung) of the same molecule?
The AUC(0-inf) was 788 µM·h.

And the Cmax ([10]; lung)?
The Cmax was 93.5 µM.

What about the Tmax ([10]; lung) of the same molecule?
Its Tmax is 0.25 h.

And the AUC(0-inf) ([10]; plasma)?
The AUC(0-inf) was 253 µM·h.

And the Cmax ([10]; plasma)?
Its Cmax is 63.3 µM.

And the Tmax ([10]; plasma)?
Its Tmax is 0.08 h.
